This test addresses T1, Human CARM1 (PRMT4) (Homo sapiens, UniProt Q86X55).
T1 construct: Flag-CARM1-His was eluted with 200 ug/ml FLAG peptide in buffer A; made in house; host or cells: HEK 293F cells (BacMam virus, pFastBacMam)
T1 sequence (Q86X55 with tags, fused parts or gaps isoform Q86X55-1): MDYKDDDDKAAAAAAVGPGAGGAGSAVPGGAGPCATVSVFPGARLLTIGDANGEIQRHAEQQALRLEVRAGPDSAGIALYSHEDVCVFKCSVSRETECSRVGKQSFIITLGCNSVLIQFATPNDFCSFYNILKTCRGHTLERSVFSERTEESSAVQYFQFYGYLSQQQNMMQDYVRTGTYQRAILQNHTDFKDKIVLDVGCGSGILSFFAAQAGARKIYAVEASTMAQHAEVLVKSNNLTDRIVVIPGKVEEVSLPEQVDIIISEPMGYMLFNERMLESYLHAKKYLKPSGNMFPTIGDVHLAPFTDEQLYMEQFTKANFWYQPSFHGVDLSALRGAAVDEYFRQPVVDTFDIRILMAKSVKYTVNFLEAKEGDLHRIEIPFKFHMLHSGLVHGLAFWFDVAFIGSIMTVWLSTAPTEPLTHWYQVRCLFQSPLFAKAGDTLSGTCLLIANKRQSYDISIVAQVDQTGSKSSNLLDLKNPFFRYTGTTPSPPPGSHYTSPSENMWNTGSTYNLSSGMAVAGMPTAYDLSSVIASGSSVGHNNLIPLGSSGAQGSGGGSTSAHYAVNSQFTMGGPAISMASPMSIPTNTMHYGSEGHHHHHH
Put plainly: CARM1 biochemical assay (3H-SAM Flashplate, peptide substrate). The source says: General Materials. S-adenosylmethionine (SAM), S-adenosylhomocysteine (SAH), bicine, Tween20, dimethylsulfoxide (DMSO), bovine skin gelatin (BSG), sodium butyrate and Tris(2-carboxyethyl)phosphine hydrochloride solution (TCEP) were purchased from Sigma-Aldrich at the highest level of purity possible. ^3H-SAM was purchase from American Radiolabeled Chemicals with a specific activity of 80 Ci/mmol. 384-well streptavidin Flashplates were purchased from PerkinElmer.
Substrates. Peptide representative of human histone H3 residues 16-30 was synthesized with an N-terminal linker-affinity tag motif and a C-terminal amide cap by 21st Century Biochemicals.
Protein Expression. Recombinant baculovirus were generated according to Bac-to-Bac kit instructions (Life Technologies). […] Infections were carried out at 37° C. for 48 hours, harvested by centrifugation, and stored at −80° C. for purification.
Protein Purification. […] Column was washed with 500 mM NaCl in buffer A and Flag-CARM1-His was eluted with 200 ug/ml FLAG peptide in buffer A. Pooled fractions were dialyzed in 20 mM Tris, 150 mM NaCl, 5% glycerol and 1 mM DTT, pH 7.8.
General Procedure for CARM1 Enzyme Assays on Peptide Substrates. The assays were all performed in a buffer consisting of 20 mM Bicine (pH=7.6), 1 mM TCEP, 0.005% BSG, and 0.002% Tween 20, prepared on the day of use. […] DMSO (1 ul) was added to Columns 11, 12, 23, 24, rows A-H for the maximum signal control and 1 ul of SAH, a known product and inhibitor of CARM1, was added to columns 11, 12, 23, 24, rows I-P for the minimum signal control. A cocktail (40 ul) containing the CARM1 enzyme was added by Multidrop Combi (Thermo-Fisher). The compounds were allowed to incubate with CARM1 for 30 min at room temperature, then a cocktail (10 ul) containing ^3H-SAM and peptide was added to initiate the reaction (final volume=51 ul). […] The assays were stopped by the addition of non-radiolabeled SAM (10 ul) to a final concentration of 300 uM, which dilutes the ^3H-SAM to a level where its incorporation into the peptide substrate is no longer detectable. 50 ul of the reaction in the 384-well polypropylene plate was then transferred to a 384-well Flashplate and the biotinylated peptides were allowed to bind to the streptavidin surface for at least 1 hour before being washed once with 0.1% Tween20 in a Biotek ELx405 plate washer. The plates were then read in a PerkinElmer TopCount plate reader to measure the quantity of ^3H-labeled peptide bound to the Flashplate surface, measured as disintegrations per minute (dpm) or alternatively, referred to as counts per minute (cpm).
Where dpm=disintegrations per minute, cmpd=signal in assay well, and min and max are the respective minimum and maximum signal controls.
Where top and bottom are the normally allowed to float, but may be fixed at 100 or 0 respectively in a 3-parameter fit. The Hill Coefficient normally allowed to float but may also be fixed at 1 in a 3-parameter fit. Y is the % inhibition and X is the compound concentration.

SMILES strings stand for the structures. Structures can show the parent of a compound that is named as a salt.

Broadly, the IC50 is the concentration at which inhibition is half-maximal. Lower therefore signals higher potency.

Compound `CNCCN(C)Cc1cn(C2CC2)nc1-c1ccc(F)cc1` [Compound 13] yielded an IC50 of 1010 to 3000 nM. Next, `CNCCN(C)Cc1cnn(C2CC2)c1-c1ccc(F)cc1` [Compound 14]: 101 to 1000 nM; `CNCCN(C)Cc1cn(C(C)C)nc1-c1ccc(F)cc1` [Compound 15]: 3010 to 10000 nM; `CNCCN(C)Cc1cnn(C(C)C)c1-c1ccc(F)cc1` [Compound 16]: 3010 to 10000 nM. The figure for `CNCCN(C)Cc1cn[nH]c1-c1ccc(C#N)cc1` [Compound 17] is 1010 to 3000 nM; for `CNCCN(C)Cc1cn[nH]c1-c1cc(F)cc(F)c1` [Compound 18] it is 101 to 1000 nM. Next, `CCCc1ccc(-c2n[nH]cc2CN(C)CCNC)cc1` [Compound 20]: 101 to 1000 nM; `CNCCN(C)Cc1c[nH]nc1-c1cccc([N+](=O)[O-])c1` [Compound 21]: 1010 to 3000 nM; `CNCCN(C)Cc1c[nH]nc1-c1cccc(C#N)c1` [Compound 22]: 1010 to 3000 nM. With `CNCCN(C)Cc1c[nH]nc1-c1ccccc1OC` [Compound 23], the IC50 lay within 1010 to 3000 nM. Next, `CNCCN(C)Cc1c[nH]nc1-c1cccc(OC)c1` [Compound 24]: 1010 to 3000 nM; `CNCCN(C)Cc1c[nH]nc1-c1ccc(OC)cc1` [Compound 25]: 1010 to 3000 nM; `CNCCN(C)Cc1c[nH]nc1-c1cccc(O)c1` [Compound 26]: 1010 to 3000 nM.

On to `CNCCN(C)Cc1c[nH]nc1-c1ccc(O)cc1` [Compound 27], for which the IC50 lay in the range of 1010 to 3000 nM. In turn, `CNCCN(C)Cc1c[nH]nc1-c1ccc(CO)cc1` [Compound 28] came in with an IC50 of 101 to 1000 nM. `CNCCN(C)Cc1c[nH]nc1-c1ccc(C)cc1C` [Compound 29] displayed a half-inhibitory concentration (IC50) of 3010 to 10000 nM.

The compound `CNCCN(C)Cc1cn(CCCC(O)CO)nc1-c1ccc(F)cc1` (centres unmarked) [Compound 30] gave an IC50 of 3010 to 10000 nM. Compound `CNCCN(C)Cc1cnn(CCCC(O)CO)c1-c1ccc(F)cc1` (centres unmarked) [Compound 31] registered an IC50 of 1010 to 3000 nM.

Consider `CNCCN(C)Cc1c[nH]nc1-c1ccc(N)cc1` [Compound 33], for which the IC50 lay within 1010 to 3000 nM. `CNCCN(C)Cc1c[nH]nc1-c1ccc(Oc2ccccc2)cc1` [Compound 37]: the IC50 was less than 100 nM. Next, `CNCCN(C)Cc1c[nH]nc1-c1ccccc1C(F)(F)F` [Compound 38]: greater than 10000 nM; `CNCCN(C)Cc1c[nH]nc1-c1ccccc1OC(F)(F)F` [Compound 40]: greater than 10000 nM; `CCNC(=O)c1cccc(-c2n[nH]cc2CN(C)CCNC)c1` [Compound 43]: 3010 to 10000 nM. Next, `CCn1cc(CN(C)CCNC)c(-c2ccc(OC(C)C)cc2)n1` [Compound 213]: 101 to 1000 nM; `CNCCN(C)Cc1cn(C2CCCC2)nc1-c1ccc(OC(C)C)cc1` [Compound 214]: 101 to 1000 nM. `CNCCN(C)Cc1cn(C2CCOC2)nc1-c1ccc(OC(C)C)cc1` (centres unmarked) [Compound 215] registered a 50% inhibitory concentration (IC50) of 101 to 1000 nM. The figure for `CNCCN(C)Cc1cnn(C2CCOC2)c1-c1ccc(OC(C)C)cc1` (centres unmarked) [Compound 216] is 101 to 1000 nM; for `CNCCN(C)Cc1cn(Cc2ccccc2)nc1-c1ccc(OC(C)C)cc1` [Compound 217] it is 101 to 1000 nM; for `C=CCn1cc(CN(C)CCNC)c(-c2ccc(OC(C)C)cc2)n1` [Compound 218] it is 101 to 1000 nM.

The compound `C=CCn1ncc(CN(C)CCNC)c1-c1ccc(OC(C)C)cc1` [Compound 219] showed an IC50 of 101 to 1000 nM. The figure for `CNCCN(C)Cc1cn(C)nc1-c1ccc(OC(C)C)cc1` [Compound 243, N1-((3-(4-isopropoxyphenyl)-1-methyl-1H-pyrazol-4-yl)methyl)-N1,N2-dimethylethane-1,2-diamine] is 101 to 1000 nM; for `CNCCN(C)Cc1cn(Cc2cccnc2)nc1-c1ccc(OC(C)C)cc1` [Compound 246] it is 1010 to 3000 nM; for `CNCCN(C)Cc1cn(Cc2ccccn2)nc1-c1ccc(OC(C)C)cc1` [Compound 247] it is 1010 to 3000 nM.

The compound `CNCCN(C)Cc1cn(CC(=O)OC)nc1-c1ccc(OC(C)C)cc1` [Compound 248] had an IC50 of 3010 to 10000 nM. Compound `CNCCN(C)Cc1cnn(CC(=O)OC)c1-c1ccc(OC(C)C)cc1` [Compound 249] came in with a half-maximal inhibitory concentration (IC50) of 3010 to 10000 nM. The figure for `CNCCN(C)Cc1cn(CC(=O)O)nc1-c1ccc(OC(C)C)cc1` [Compound 250] is greater than 10000 nM; for `CNCCN(C)Cc1cn(CC(N)=O)nc1-c1ccc(OC(C)C)cc1` [Compound 251] it is 1010 to 3000 nM. Next, `CCn1ncc(CN(C)CCNC)c1-c1ccc(OC(C)C)cc1` [Compound 252]: 101 to 1000 nM; `CNCCN(C)Cc1cn(CCOC)nc1-c1ccc(OC(C)C)cc1` [Compound 253, N1-((3-(4-isopropoxyphenyl)-1-(2-methoxyethyl)-1H-pyrazol-4-yl)methyl)-N1,N2-dimethylethane-1,2-diamine hydrochloride]: 1010 to 3000 nM; `CNCCN(C)Cc1cn(C2CCC2)nc1-c1ccc(OC(C)C)cc1` [Compound 254, N1-((1-cyclobutyl-3-(4-isopropoxyphenyl)-1H-pyrazol-4-yl)methyl)-N1,N2-dimethylethane-1,2-diamine hydrochloride]: 101 to 1000 nM. The figure for `CNCCN(C)Cc1cnn(C2CCCC2)c1-c1ccc(OC(C)C)cc1` [Compound 255] is 1010 to 3000 nM. The compound `CNCCN(C)Cc1cn(C2CCCCC2)nc1-c1ccc(OC(C)C)cc1` [Compound 256] showed an IC50 of 101 to 1000 nM. In turn, `C=C(C)C(=O)Nc1cccc(-c2[nH]ncc2CN(C)CCNC)c1` [Compound 257] registered an IC50 greater than 10000 nM. Next, `C=CC(=O)Nc1cccc(-c2[nH]ncc2CN(C)CCNC)c1` [Compound 258]: 1010 to 3000 nM.

These data come from patent publication US9346761B2, “Arginine methyltransferase inhibitors and uses thereof” (Epizyme, Inc., priority 2013, dated 2016).
